Source: patent US20100267561A1, “HERBICIDAL PYRIDAZINONE DERIVATIVES” (priority 2007, published 2010)

Experiments:
Assay type in all cases: in vivo
[1] = tested on: common (oilseed) sunflower (Helianthus annuus); assay: Test B pre-/postemergence plant response; details: Preemergence
In short: (§1)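 Visual scoring from 0 (no effect) to 100 (complete control) against untreated controls was done 13 to 15 days after greenhouse treatment. Chemicals were formulated in a surfactant-containing non-phytotoxic solvent and applied to soil preemergence or to 1- to 4-leaf (2-18 cm) plants postemergence.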

[2] = tested on: wheat (Triticum aestivum); assay: Test B pre-/postemergence plant response
In short: as §1

[3] = tested on: downy bromegrass (Bromus tectorum); assay: Test B pre-/postemergence plant response
In short: as §1

[4] = tested on: goosegrass (Eleusine indica); assay: Test B pre-/postemergence plant response
In short: as §1

[5] = tested on: green foxtail (Setaria viridis); assay: Test B pre-/postemergence plant response
In short: as §1

[6] = tested on: large crabgrass (Digitaria sanguinalis); assay: Test B pre-/postemergence plant response
In short: as §1

[7] = tested on: woolly cupgrass (Eriochloa villosa); assay: Test B pre-/postemergence plant response
In short: as §1

[8] = tested on: Russian thistle (Salsola iberica); assay: Test B pre-/postemergence plant response; details: Preemergence
In short: as §1

[9] = tested on: cocklebur (Xanthium strumarium); assay: Test B pre-/postemergence plant response
In short: as §1

[10] = tested on: catchweed bedstraw (Galium aparine); assay: Test B pre-/postemergence plant response; details: Preemergence
In short: as §1

soybean (Glycine max) = assay: Test B pre-/postemergence plant response
In short: as §1

[11] = tested on: pigweed (Amaranthus retroflexus); assay: Test B pre-/postemergence plant response
In short: as §1

[12] = tested on: velvetleaf (Abutilon theophrasti); assay: Test B pre-/postemergence plant response
In short: as §1

rice (Oryza sativa) = assay: Test B flooded paddy test plant response
In short: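 2-leaf plants; pots flooded 3 cm above soil; compound added to paddy water; depth maintained. Greenhouse 13–15 d. Visual rating vs controls, 0 (no effect) to 100 (complete control); dash = no result.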

[13] = 31 g ai/ha, 0 to 100 scale, 0 no effect, 100 complete control
[14] = Postemergence, 31 g ai/ha, scale 0 to 100, 0 no effect, 100 complete control
[15] = Postemergence, 62 g ai/ha, scale 0 to 100
[16] = Postemergence, 125 g ai/ha, scale 0 to 100
[17] = Postemergence, 250 g ai/ha, scale 0 to 100
[18] = Preemergence, 31 g ai/ha, 0 to 100 scale, 0 no effect, 100 complete control
[19] = Preemergence, 62 g ai/ha, scale 0 to 100
[20] = Preemergence, 125 g ai/ha, scale 0 to 100
[21] = Preemergence, 250 g ai/ha, scale 0 to 100

`CCc1cc(-c2ccc(C(F)(F)F)cc2)nn1-c1c(O)c(C)nn(C)c1=O` [Compound 16] was tested, and the “Plant response rating, Sunflower” value [1, 13] was 0, the “Plant response rating, Sunflower” value ([1]; 62 g ai/ha, scale 0 to 100) was 0 and the “Plant response rating, Sunflower” value ([1]; 125 g ai/ha, scale 0 to 100) was 0. The “Plant response rating, Sunflower” value ([1]; 250 g ai/ha, scale 0 to 100) was 0, the “Plant response rating, Wheat” value [2, 14] was 95 and the “Plant response rating, Wheat” value [2, 15] was 98. The “Plant response rating, Wheat” value [2, 16] was 100, the “Plant response rating, Wheat” value [2, 17] was 100 and the “Plant response rating, Wheat” value [2, 18] was 15. For the same molecule, the “Plant response rating, Wheat” value [2, 19] was 90, the “Plant response rating, Wheat” value [2, 20] was 98 and the “Plant response rating, Wheat” value [2, 21] was 100. The “Plant response rating, Bromegrass, Downy” value [3, 14] was 60, the “Plant response rating, Bromegrass, Downy” value [3, 15] was 70 and the “Plant response rating, Bromegrass, Downy” value [3, 16] was 90. The “Plant response rating, Bromegrass, Downy” value [3, 17] was 100, the “Plant response rating, Bromegrass, Downy” value [3, 18] was 90 and the “Plant response rating, Bromegrass, Downy” value [3, 19] was 100. For the same molecule, the “Plant response rating, Bromegrass, Downy” value [3, 20] was 100, the “Plant response rating, Bromegrass, Downy” value ([3]; Preemergence, 250 g ai/ha, scale 0 to 100 (0 no effect, 100 complete control)) was 100 and the “Plant response rating, Goosegrass” value [4, 14] was 60. For the same molecule, the “Plant response rating, Goosegrass” value [4, 15] was 65, the “Plant response rating, Goosegrass” value [4, 16] was 75 and the “Plant response rating, Goosegrass” value [4, 17] was 80. For the same molecule, the “Plant response rating, Goosegrass” value [4, 18] was 0, the “Plant response rating, Goosegrass” value [4, 19] was 0 and the “Plant response rating, Goosegrass” value [4, 20] was 50. The “Plant response rating, Goosegrass” value [4, 21] was 60, the “Plant response rating, Foxtail, Green” value [5, 14] was 95 and the “Plant response rating, Foxtail, Green” value [5, 15] was 98. For the same molecule, the “Plant response rating, Foxtail, Green” value [5, 16] was 100, the “Plant response rating, Foxtail, Green” value [5, 17] was 100 and the “Plant response rating, Foxtail, Green” value [5, 18] was 100. The “Plant response rating, Foxtail, Green” value [5, 19] was 100, the “Plant response rating, Foxtail, Green” value [5, 20] was 100 and the “Plant response rating, Foxtail, Green” value [5, 21] was 100. The “Plant response rating, Crabgrass, Large” value [6, 14] was 95, the “Plant response rating, Crabgrass, Large” value [6, 15] was 95 and the “Plant response rating, Crabgrass, Large” value [6, 16] was 100. The “Plant response rating, Crabgrass, Large” value [6, 17] was 100, the “Plant response rating, Crabgrass, Large” value [6, 18] was 0 and the “Plant response rating, Crabgrass, Large” value [6, 19] was 0. The “Plant response rating, Crabgrass, Large” value [6, 20] was 20, the “Plant response rating, Crabgrass, Large” value [6, 21] was 40 and the “Plant response rating, Cupgrass, Woolly” value [7, 14] was 80. For the same molecule, the “Plant response rating, Cupgrass, Woolly” value [7, 15] was 95, the “Plant response rating, Cupgrass, Woolly” value [7, 16] was 100 and the “Plant response rating, Cupgrass, Woolly” value [7, 17] was 100. The “Plant response rating, Cupgrass, Woolly” value [7, 18] was 0, the “Plant response rating, Cupgrass, Woolly” value [7, 19] was 25 and the “Plant response rating, Cupgrass, Woolly” value [7, 20] was 70. The “Plant response rating, Cupgrass, Woolly” value [7, 21] was 95, the “Plant response rating, Russian Thistle” value [8, 13] was 0 and the “Plant response rating, Russian Thistle” value ([8]; 62 g ai/ha, scale 0 to 100) was 0. The “Plant response rating, Russian Thistle” value ([8]; 125 g ai/ha, scale 0 to 100) was 0, the “Plant response rating, Russian Thistle” value ([8]; 250 g ai/ha, scale 0 to 100) was 0 and the “Plant response rating, Cocklebur” value [9, 14] was 0. The “Plant response rating, Cocklebur” value [9, 15] was 0, the “Plant response rating, Cocklebur” value [9, 16] was 0 and the “Plant response rating, Cocklebur” value [9, 17] was 0. The “Plant response rating, Cocklebur” value [9, 18] was 0, the “Plant response rating, Cocklebur” value [9, 19] was 0 and the “Plant response rating, Cocklebur” value [9, 20] was 0. For the same molecule, the “Plant response rating, Cocklebur” value [9, 21] was 0, the “Plant response rating, Galium” value [10, 13] was 0 and the “Plant response rating, Galium” value ([10]; 62 g ai/ha, scale 0 to 100) was 0. The “Plant response rating, Galium” value ([10]; 125 g ai/ha, scale 0 to 100) was 0, the “Plant response rating, Galium” value ([10]; 250 g ai/ha, scale 0 to 100) was 0 and the “Plant response rating, Soybean” value (soybean (Glycine max); [14]) was 0. The “Plant response rating, Soybean” value (soybean (Glycine max); [15]) was 0, the “Plant response rating, Soybean” value (soybean (Glycine max); [16]) was 0 and the “Plant response rating, Soybean” value (soybean (Glycine max); [17]) was 0. For the same molecule, the “Plant response rating, Soybean” value (soybean (Glycine max); [21]) was 0, the “Plant response rating, Pigweed” value [11, 14] was 0 and the “Plant response rating, Pigweed” value [11, 15] was 0. The “Plant response rating, Pigweed” value [11, 16] was 0, the “Plant response rating, Pigweed” value [11, 17] was 0 and the “Plant response rating, Pigweed” value [11, 19] was 0. For the same molecule, the “Plant response rating, Pigweed” value [11, 20] was 0, the “Plant response rating, Pigweed” value [11, 21] was 0 and the “Plant response rating, Velvetleaf” value [12, 14] was 0. The “Plant response rating, Velvetleaf” value [12, 15] was 0, the “Plant response rating, Velvetleaf” value [12, 16] was 0 and the “Plant response rating, Velvetleaf” value [12, 17] was 0. For the same molecule, the “Plant response rating, Velvetleaf” value [12, 18] was 0, the “Plant response rating, Velvetleaf” value [12, 19] was 0 and the “Plant response rating, Velvetleaf” value [12, 20] was 0. The “Plant response rating, Velvetleaf” value [12, 21] was 0, the “Plant response rating, Rice” value (rice (Oryza sativa); Flood (flooded paddy test), 62 g ai/ha, scale 0 to 100, 0 no effect, 100 complete control) was 20 and the “Plant response rating, Rice” value (rice (Oryza sativa); Flood (flooded paddy test), 125 g ai/ha, scale 0 to 100, 0 no effect, 100 complete control) was 45. For the same molecule, the “Plant response rating, Rice” value (rice (Oryza sativa); Flood (flooded paddy test), 250 g ai/ha, scale 0 to 100, 0 no effect, 100 complete control) was 80 and the “Plant response rating, Rice” value (rice (Oryza sativa); Flood, 31 g ai/ha, scale 0 to 100) was 0.
